Key:
T lymphocytes = experiment: Cell viability of purified T lymphocytes (PI staining, flow cytometry); format: cell-based, human; settings: 48 h
Protocol: Purified populations of human blood monocytes were prepared as previously described by differential density centrifugation on Ficoll and Percoll gradients (see Allavena, P., Piemonti, L., Longoni, D., Bernasconi, S., Stoppacciaro, A., Ruco, L., and Mantovani, A. IL-10 prevents the differentiation of monocytes to dendritic cells but promotes their maturation to macrophages. Eur J Immunol, 28: 359-369, 1998). […] Human thymocytes were isolated from resected thymus from pediatric patients undergoing surgery. Thymocytes were obtained by teasing and isolated on Percoll gradient.
Cell viability was analyzed by DNA content in Flow Cytometry
(§1) Cells exposed to treatments were fixed with ethanol 70%, washed in PBS and stained with propidium iodide (PI) solution containing 10 ug/ml PI in PBS and 25 μl RNAse 10,000 units, overnight in the dark. PI incorporation was evaluated on at least 20,000 cells/sample using a FACS Calibur instrument (Becton Dickinson, Sunnyvale, Calif., USA), with a bandpass filter at 620 nm. Apoptosis was detected by staining with AnnexinV and PI. FACS analysis was performed using a bandpass filter 530 and 620 nm for green (AnnexinV) and red (PI) fluorescence respectively, in combination with a […] dichroic mirror.
Purified preparations of blood monocytes, lymphocytes and thymocytes were cultured with different concentrations of ecteinascidin 743 for 48 h. […]

monocytes = experiment: Apoptosis of monocytes (Annexin V / PI staining); format: cell-based, human; settings: monocytes exposed to drug
Protocol: as §1

CCL2 = CCL2 production by TAM (ELISA); format: cell-based, human; settings: 16 h, n=4
From the text: (§2) Tumour-associated macrophages (TAM) and tumour cells were isolated from the ascitic fluid of patients with diagnosed ovarian adenocarcinoma, admitted to the Clinic of Obstetrics and Gynecology of the University of Milan-Bicocca, S Gerardo Hospital. Cells contained in the ascitic fluid were centrifuged and isolated by differential density gradients of Ficoll and Percoll, and plastic adherence as previously described (see Allavena, P., Peccatori, F., Maggioni, D., Erroi, A., Sironi, M., Colombo, N., Lissoni, A., Galazka, A., Meiers, W., Mangioni, C., et al. Intraperitoneal recombinant gamma-interferon in patients with recurrent ascitic ovarian carcinoma: modulation of cytotoxicity and cytokine production in tumour-associated effectors and of major histocompatibility antigen expression on tumour cells. Cancer Res, 50: 7318-7323, 1990). Purity of TAM and tumour cell preparations was usually>65±10% as defined by morphology and phenotype analysis. Cells were treated with ecteinascidin 743 at the indicated concentrations and cultured for 1-5 days, as specified in figure legends. […]
(§3) Monocytes, macrophages and TAM were stimulated with 100 ng/ml LPS to induce maximal cytokine production. Determination of cytokines CCL2, TNF and IL-6 was measured by specific ELISA following the manufacturer's instructions. […]

IL-6 [1] = experiment: IL-6 production by LPS-stimulated monocytes (ELISA); format: cell-based; settings: Homo sapiens, Monocyte; 5 nM, n=2; read-out: overall inhibition of IL-6 production, monocytes
Protocol: Supernatants of untreated cells or cells treated with ecteinascidin 743 or other anti-neoplastic agents were collected after 24 h culture and frozen. Monocytes, macrophages and TAM were stimulated with 100 ng/ml LPS to induce maximal cytokine production. Determination of cytokines CCL2, TNF and IL-6 was measured by specific ELISA following the manufacturer's instructions.
Monocytes and in vitro differentiated macrophages were stimulated with LPS (100 ng/ml). After 1 h LPS stimulation they were treated with ecteinascidin 743. After 16 h incubation, cell supernatants were harvested and tested in ELISA. Under these treatment conditions cell viability was usually >85% for concentrations up to 5 nM. […] Mean inhibition at 5 nM, for monocytes, was 65% (range 50-80%, n=5) and was 50% (range 25-75%, n=5) for in vitro differentiated macrophages. Results are mean+/−SE of 3-5 experiments
We also tested two other cytokines, IL-6 and TNF, produced by macrophages and tumour cells, which have inflammatory properties and also act as growth factors for some tumours. IL-6 production was always reduced after ecteinascidin 743 treatment, with an overall inhibition at 5 nM of 54% (range 51-57%, n=2) and 69% (range 66-72%, n=2), in monocytes and macrophages, respectively (FIG. 6B). […]

IL-6 [2] = experiment: Constitutive IL-6 production by freshly isolated ovarian tumour cells (ELISA); format: cell-based, human; settings: 16 h
From the text: as §2, §3

TNF = TNF production by LPS-stimulated in vitro differentiated macrophages (ELISA); format: cell-based, human; settings: LPS 100 ng/ml, 16 h incubation
Protocol: Monocytes, macrophages and TAM were stimulated with 100 ng/ml LPS to induce maximal cytokine production. Determination of cytokines CCL2, TNF and IL-6 was measured by specific ELISA following the manufacturer's instructions.
(§4) To verify whether the inhibitory effect of ecteinascidin 743 on cytokine production was at the transcriptional level, we analyzed mRNA of CCL2 and TNF from LPS-stimulated macrophages by real time-PCR of CCL2 and TNF transcripts in LPS-stimulated monocytes exposed to ecteinascidin 743.

CCL2 transcripts = experiment: Real time-PCR of CCL2 transcripts in LPS-stimulated monocytes; format: cell-based, human
From the text: as §4

TNF mRNA = experiment: Real time-PCR of TNF transcripts in LPS-stimulated monocytes; format: cell-based, human
From the text: as §4

COc1cc2c(cc1O)CCN[C@]21CS[C@@H]2c3c(OC(C)=O)c(C)c4c(c3[C@H](COC1=O)N1[C@@H]2[C@H]2c3c(cc(C)c(OC)c3O)C[C@@H]([C@@H]1O)N2C)OCO4 [ecteinascidin 743]
viability of T lymphocytes (T lymphocytes; 5 nM): all alive
IC50 (T lymphocytes; Homo sapiens, T-lymphocyte): 20 nM
Annexin V staining of dying monocytes (apoptosis) (monocytes): stained positive for Annexin V
reduction of LPS-stimulated production of CCL2 by TAM (CCL2; LPS 100 ng/ml): 50%
reduction of constitutive production of CCL2 by TAM (CCL2; no LPS): 43%
inhibition at 0.005 µM (IL-6 [1]): 54%
constitutive production of IL-6 by freshly isolated tumour cells (IL-6 [2]): reduced
production of TNF by macrophages (TNF): never inhibited
CCL2 transcripts (CCL2 transcripts): consistent reduction
TNF mRNA (TNF mRNA): unaffected
